{"source": "paper PMC5504166", "about": "“Rosmarinic Acid Protects against Inflammation and Cardiomyocyte Apoptosis during Myocardial Ischemia/Reperfusion Injury by Activating Peroxisome Proliferator-Activated Receptor Gamma” (Frontiers in Pharmacology, 2017)", "key": {"[1]": {"target": "T1, PPARγ (Homo sapiens, UniProt P37231)", "T1 construct": "gene PPARG", "T1 sequence (P37231 1-505)": "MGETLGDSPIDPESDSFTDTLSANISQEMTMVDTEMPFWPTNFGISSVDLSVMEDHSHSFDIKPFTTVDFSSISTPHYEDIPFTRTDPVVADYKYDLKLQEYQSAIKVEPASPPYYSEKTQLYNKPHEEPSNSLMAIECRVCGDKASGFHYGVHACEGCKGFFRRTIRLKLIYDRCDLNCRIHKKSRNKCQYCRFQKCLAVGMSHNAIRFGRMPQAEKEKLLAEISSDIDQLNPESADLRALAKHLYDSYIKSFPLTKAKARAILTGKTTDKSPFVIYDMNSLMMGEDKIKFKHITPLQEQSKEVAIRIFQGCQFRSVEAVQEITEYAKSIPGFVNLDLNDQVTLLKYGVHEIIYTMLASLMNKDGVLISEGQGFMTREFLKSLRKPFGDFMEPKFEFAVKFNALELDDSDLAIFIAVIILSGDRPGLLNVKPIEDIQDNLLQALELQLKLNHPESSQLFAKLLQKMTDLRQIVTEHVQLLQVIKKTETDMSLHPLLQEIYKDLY", "test": "PolarScreen PPAR Gamma Competitor Assay, Green (fluorescence polarization competition)", "format": "binding", "settings": "read-out: EC50 (mean ± SD μM)"}, "[2]": {"target": "T2, PTGS2/COX2 (Prostaglandin G/H synthase 2) (Ovis aries, UniProt P79208)", "T2 sequence (P79208 17-603)": "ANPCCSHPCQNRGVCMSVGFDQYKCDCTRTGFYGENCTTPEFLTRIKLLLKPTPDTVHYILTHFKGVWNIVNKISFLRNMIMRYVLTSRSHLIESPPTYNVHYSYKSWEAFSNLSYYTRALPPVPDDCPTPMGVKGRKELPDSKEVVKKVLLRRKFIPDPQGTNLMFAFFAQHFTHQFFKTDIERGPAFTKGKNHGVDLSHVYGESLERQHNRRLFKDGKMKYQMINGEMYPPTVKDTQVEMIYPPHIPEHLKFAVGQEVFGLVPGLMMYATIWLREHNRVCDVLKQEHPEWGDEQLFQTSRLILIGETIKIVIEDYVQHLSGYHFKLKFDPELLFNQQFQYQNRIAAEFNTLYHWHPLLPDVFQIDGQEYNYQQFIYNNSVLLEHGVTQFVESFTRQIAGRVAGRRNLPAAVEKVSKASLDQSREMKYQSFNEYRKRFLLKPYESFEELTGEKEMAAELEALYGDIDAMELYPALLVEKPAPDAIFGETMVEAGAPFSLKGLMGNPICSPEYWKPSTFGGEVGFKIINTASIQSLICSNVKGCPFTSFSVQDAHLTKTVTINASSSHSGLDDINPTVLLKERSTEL", "test": "Colorimetric COX (ovine) inhibitor screening assay kit (Cayman)", "format": "biochemical", "settings": "read-out: IC50 (mean ± SD μM)"}}}
{"compound": "O=C(/C=C/c1ccc(O)c(O)c1)O[C@H](Cc1ccc(O)c(O)c1)C(=O)O", "note": "[RosA, Rosmarinic acid]", "values": [{"measurement": "EC50", "setting": "[1]", "value": "55.8 ± 3.45", "unit": "µM"}, {"measurement": "IC50", "setting": "[2]", "value": "170 ± 9.18", "unit": "µM"}]}
